Key:
[1] = molecular target: T1, CaM binding domain of Arabidopsis thaliana NADK2 (Arabidopsis thaliana, UniProt Q9C5W3); assay: NADK peptide affinity for CaMs (intrinsic Trp of the peptide)
T1 construct: purchased Ohio Peptide LLC (Powell, OH); host or cells: chemical synthesis
Experimental: (§1) The steady-state fluorescence measurements were performed using a Perkin-Elmer LS55 spectrofluorimeter at 20°C. The titration buffer consisted of 200 mM MOPS, 150 mM KCl, 2 mM EGTA (pH 7.0) ([Tikunova et al., 2002], [2010]; [Tikunova and Davis, 2004]). […] The free Ca^2+ concentration was calculated using the EGCA02 program by [Robertson and Potter (1984)]. The free Mg^2+ concentration was calculated using the MaxChelator program ([Bers et al., 2010]). Each reported Kd represents an average of at least three successive titrations ± standard error and fit with the Hill equation as previously described ([George et al., 1996]).
(§2) The Ca^2+ titrations in the presence of Mg^2+ were performed as described above with the addition of 3 mM Mg^2+ to the titration buffer.

[2] = Steady-state Ca^2+ sensitivity of CaMs in the presence of NADK peptide; type: binding; conditions: vs MLCK peptide
Experimental: as §1, §2

Kd ([1]; read-out: NADK peptide affinity (Kd) for Ca^2+-saturated CaM, WT CaM titrated into 1 μM NADK peptide, 100 μM Ca^2+ (pCa = 4), 200 mM MOPS, 150 mM KCl, 2 mM EGTA, pH 7.0, 20°C, mean ± SE of at least three titrations) [µM]	binding of NADK peptide to CaMs in the absence of Ca^2+ ([1]; absence of Ca^2+, data not shown)	affinity of NADK peptide for Ca^2+-saturated CaMs compared to MLCK ([1]; vs MLCK peptide)	Substance	effect at sensitizing the CaMs to Ca^2+ compared to MLCK [2]
0.76 ± 0.07	–	–	sCaM4: soybean CaM isoform 4; stress-induced CaM found in the soybean	–
–	did not bind	weaker affinity	IYVHSKEGVWRTSAMVSRWK [NADK peptide]	substantially weaker effect

From publication PMC5309217, “Divergent Soybean Calmodulins Respond Similarly to Calcium Transients: Insight into Differential Target Regulation” (Frontiers in Plant Science, 2017)
